# PMC6718736, “Validation of in vitro methods for human cytochrome P450 enzyme induction: Outcome of a multi-laboratory study” (Toxicology in Vitro, 2019)
# Read-outs that look alike come from different tables or passages of the source.
# Tests used:
# [1] = cited from earlier work
# CYP3A4 [2] = tested on: CYP3A4
# CYP3A4 [3] = conditions: in vivo; cited from earlier work
# CYP1A2 [4] = conditions: cited from earlier work
# [5] = Solubility by visual inspection (DMSO stock solution and assay medium); assay type: physicochemical; conditions: assay medium
# Procedure: The SOPs relied on visual inspection for solubility observation. […] The absence of precipitation in the medium was checked pre- and post-incubation (24 hours) by centrifugation of the sample and observation of any precipitation (pellet residue).
# CYP1A2 [6] = assay: CYP1A2 enzyme induction assay in cryopreserved primary human hepatocytes (PHH); assay type: in vitro ADME; conditions: for Assigned classification CYP1A2: PHH;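 on Assigned classification CYP1A2: code 1 means positive inducer and 0 means non-inducer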
# CYP = CYP isoforms induced; ref Abadie et al. (2009), Richert et al. (2010), Preissner et al. (2010), Hoffmann et al. (2014); cited from earlier work
# [7] = Solubility by nephelometry (EURL ECVAM); assay type: physicochemical; conditions: ECVAM nephelometry, ^2 = solubility limit
# From the text: In addition to the visual inspection performed by the validation laboratories as described in the SOP, EURL ECVAM introduced nephelometry for systematic solubility determination of the 13 validation set chemicals. Nephelometry uses a laser beam and the principle of Tyndall effect light scatter to detect turbidity due to insolubility. The nephelometer method used formazin as reference item (1, 5, 10 and 20 nephelometric turbidity units (NTU)) to calculate the relative turbidity (RTU) of the validation set of chemicals. To the naked eye, 20 NTU is perceptible, while the nephelometer was sensitive to 5 NTU, with 1 NTU equivalent to background (solvent/medium blank).
# CYP2B6 = CYP2B6 enzyme induction assay in cryopreserved primary human hepatocytes (PHH); assay type: in vitro ADME; conditions: for Assigned classification CYP2B6: PHH;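 on Assigned classification CYP2B6: code 1 means positive inducer and 0 means non-inducer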
structure (smiles),measurement,setting,value
CO[C@H]1/C=C/O[C@@]2(C)Oc3c(C)c(O)c4c(c3C2=O)C2=NC3(CCN(CC(C)C)CC3)NC2=C(NC(=O)/C(C)=C\C=C\[C@H](C)[C@H](O)[C@@H](C)[C@@H](O)[C@@H](C)[C@H](OC(C)=O)[C@@H]1C)C4=O [Rifabutin],Cmax,"[1]; human in vivo plasma concentration, normal dose",440 nM
same,Cmax,"[1]; human in vivo, normal dose (Table 10)",440 nM
same,Induction in vitro,CYP3A4 [2],Yes
same,Prediction in vivo inducer,CYP3A4 [2],Yes
same,"Summary predictive capacity, CYP3A4 induction (Y/N)",CYP3A4 [2]; hepatocytes,Y
same,Cmax/F2,CYP3A4 [2]; human,4.4
same,F2,CYP3A4 [2]; human,0.1 µM
same,CYP induction in vivo literature reference: CYP3A4,CYP3A4 [3],"CYP1A2 NOT induced ([Gillum et al., 1996]) CYP2B6 NO studies CYP3A4 ([Horita and Doi, 2014]; [Barditch-Crovo et al., 1999])"
same,Induction in vivo,CYP3A4 [3],Yes
same,Induction in vivo,"CYP1A2 [4]; CYP1A2, human, ref Table 1",No
same,CYP induction in vivo literature reference: CYP1A2,"CYP1A2 [4]; human in vivo, CYP named without remark = induced, ref references in the cell, Washington University database, Hoffmann et al. (2014), Pelkonen et al. (2008), Hukkanen et al. (2012)","CYP1A2 NOT induced ([Gillum et al., 1996]) CYP2B6 NO studies CYP3A4 ([Horita and Doi, 2014]; [Barditch-Crovo et al., 1999])"
same,HepaRG medium stability,"[5]; Lab 1, visual observation",40 µg/mL
same,HepaRG medium stability,"[5]; Lab 2, visual observation",20 µg/mL
same,HepaRG medium stability,"[5]; Lab 3, visual observation",40 µg/mL
same,PHH medium stability,"[5]; Lab 4, visual observation",40 µg/mL
same,PHH medium stability,"[5]; Lab 5, visual observation",40 µg/mL
same,PHH medium stability,"[5]; Lab 6, visual observation",40 µg/mL
same,Prediction in vivo inducer,"CYP1A2 [6]; CYP1A2, PHH, Cmax/F2 >0.5 criterion",No
same,F2,"CYP1A2 [6]; CYP1A2, PHH, in vitro concentration producing 2-fold induction",2.2 to 6.7 µM
same,Induction in vitro,"CYP1A2 [6]; CYP1A2, PHH, positive in one donor in each of the three laboratories",Yes
same,Assigned classification CYP1A2,"CYP1A2 [6]; Lab 1, batch 0 6 A",1
same,Assigned classification CYP1A2,"CYP1A2 [6]; Lab 1, batch 4 0 8",1
same,Assigned classification CYP1A2,"CYP1A2 [6]; Lab 1, batch 8 0 8",0
same,Assigned classification CYP1A2,"CYP1A2 [6]; Lab 2, batch 0 6 A",0
same,Assigned classification CYP1A2,"CYP1A2 [6]; Lab 2, batch 4 0 8",0
same,Assigned classification CYP1A2,"CYP1A2 [6]; Lab 2, batch 8 0 8",1
same,Assigned classification CYP1A2,"CYP1A2 [6]; Lab 3, batch 0 6 A",1
same,Assigned classification CYP1A2,"CYP1A2 [6]; Lab 3, batch 4 0 8",0
same,Assigned classification CYP1A2,"CYP1A2 [6]; Lab 3, batch 8 0 8",0
same,CYP induction in vitro (human hepatocytes),CYP,"CYP1A2, CYP3A4"
same,HepaRG medium stability,[7]; HepaRG medium,40 µg/mL
same,PHH medium stability,[7]; PHH medium,40 µg/mL
same,F2,"CYP2B6; CYP2B6, PHH",0.29 to 0.87 µM
same,Induction in vitro,"CYP2B6; CYP2B6, PHH",induced CYP2B6 and Yes
same,Prediction in vivo inducer,"CYP2B6; CYP2B6, PHH",Yes
same,Assigned classification CYP2B6,"CYP2B6; Lab 1, batch 0 6 A",1
same,Assigned classification CYP2B6,"CYP2B6; Lab 1, batch 4 0 8",0
same,Assigned classification CYP2B6,"CYP2B6; Lab 1, batch 8 0 8",1
same,Assigned classification CYP2B6,"CYP2B6; Lab 2, batch 0 6 A",0
same,Assigned classification CYP2B6,"CYP2B6; Lab 2, batch 4 0 8",0
same,Assigned classification CYP2B6,"CYP2B6; Lab 2, batch 8 0 8",1
same,Assigned classification CYP2B6,"CYP2B6; Lab 3, batch 0 6 A",1
same,Assigned classification CYP2B6,"CYP2B6; Lab 3, batch 4 0 8",1
same,Assigned classification CYP2B6,"CYP2B6; Lab 3, batch 8 0 8",1
